Reference: patent US6177592A, “Compounds” (priority 1997, dated 2001)

Tests used:
[1] = test system: heat shock protein of 70 kDa (HSP70); assay: Induction of heat shock protein of 70 kDa in HL-60; format: cell-based, human; design: key: -: no induction was noted; ±: the induction was slight; indicates degree of intensity of induction and the more the numbers of "+", the more the intensity of induction; ++: the more the numbers of "+", the more the intensity of induction; +++: the more the numbers of "+", the more the intensity of induction; conditions: 5 μM CM
[2] = test system: tumor necrosis factor-α; assay: TNF-α in serum of LPS endotoxin-shock mice; format: in vivo, mouse (CDF1); conditions: for TNF in serum (Mean ± SE): n=5, control 2.32 ± 0.15
Method: (1) LPS (lipopolysaccharide manufactured by Sigma) was intraperitoneally injected (10 μg/mouse) to female CDF1 mice of eight weeks age (purchased from Nippon SLC at seven weeks age with bodyweight of 20 g followed by subjecting a preliminary breeding for one week at our end) and endotoxin-shock models were prepared. GM was orally administered at the dose of 100 and 1000 mg/kg at thirty minutes before administration of LPS. After one hour from the administration of LPS, blood was collected from the mice, serum was separated and amount of the tumor necrosis factor-α in the serum was measured by a commercially available ELISA kit (manufactured by Endogen).

[3] = test system: RAW264.7 cells; assay: Inhibition of LPS-caused cell damage in RAW264.7; format: cell-based, mouse; conditions: RAW 264.7
Method: Inhibition activity of GM to NO production and to cell damage was measured as follows using mouse macrophage cell strain RAW264.7 cells (ATCC TIB 71) and LPS.
Dulbecco-modified Eagle's medium (manufactured by Life Technologies Oriental; 11054-020) containing 2 mM of L-glutamine (manufactured by Life Technologies Oriental; 25030-149) containing no Phenol Red containing 5 ml of 10% fetal calf serum (manufactured by Gibco) containing 1.5×10^6 cells of RAW 264.7 was incubated in a six-well tissue culture plate in the presence of 5% carbon dioxide gas at 37° C. for 12 hours, 50μl of 50μg/ml LPS (manufactured by Sigma; L-2012) was added, then each 50 μl of 250 )i M Mn or 100 μH GM was added to each well, incubation was further continued for additional 12 hours and, after that, NO2^- produced by oxidation of NO in the medium and amount of viable cell numbers were measured. Incidentally, a sect-Lon where no LPS was added and a section where no GM was added were prepared as controls.

[4] = test system: Fas antigen; assay: Fas antigen expression in Molt-3 cells; format: cell-based, human
Method: (2) Influence of GM on Fas antigen expression (productive induction) in Jurkat cells and Molt-3 cells was measured as follows. In a 10% FCS-containing RPMI 1640 medium containing 0, 1, 5, 10 or 20 μM of cyclopentenone or GM, 5×10^5 cell/ml of Jurkat cells or Molt-3 cells were incubated at 37° C. for 24 hours in the presence of 5% of CO2 and then subjected to a two-step immunostaining using an anti-Fas antibody (manufactured by Boehringer-Ingelheim) in accordance with a method of Munker [Munker, R.: Ann. Hematol., volume 70, pages 15-17 (1995)].
Fluorescence intensity of the stained 1×10^4 cells was measured by a flow cytometer (Orthocytron; manufactured by Ortho Diagnostic Systems) and ratio of the cell showing a predetermined or higher fluorescence intensity which were Fas antigen-expressing cells was calculated.
(3) Molt-3 cells were incubated for 1, 3, 6, 12 or 24 hours after addition of 10 (i M of GM by the same manner as in Example 12-(2) and then the ratio of the cells which expressed Fas antigen was measured by the same method as in Example 12-(2)sa

[5] = biological target: T1, topoisomerase I (Homo sapiens, UniProt P11387); assay: Topoisomerase I inhibition; format: biochemical; conditions: 1 mM GM
T1 construct: pBR322 supercoil relaxation assay
T1 sequence (P11387 whole entry): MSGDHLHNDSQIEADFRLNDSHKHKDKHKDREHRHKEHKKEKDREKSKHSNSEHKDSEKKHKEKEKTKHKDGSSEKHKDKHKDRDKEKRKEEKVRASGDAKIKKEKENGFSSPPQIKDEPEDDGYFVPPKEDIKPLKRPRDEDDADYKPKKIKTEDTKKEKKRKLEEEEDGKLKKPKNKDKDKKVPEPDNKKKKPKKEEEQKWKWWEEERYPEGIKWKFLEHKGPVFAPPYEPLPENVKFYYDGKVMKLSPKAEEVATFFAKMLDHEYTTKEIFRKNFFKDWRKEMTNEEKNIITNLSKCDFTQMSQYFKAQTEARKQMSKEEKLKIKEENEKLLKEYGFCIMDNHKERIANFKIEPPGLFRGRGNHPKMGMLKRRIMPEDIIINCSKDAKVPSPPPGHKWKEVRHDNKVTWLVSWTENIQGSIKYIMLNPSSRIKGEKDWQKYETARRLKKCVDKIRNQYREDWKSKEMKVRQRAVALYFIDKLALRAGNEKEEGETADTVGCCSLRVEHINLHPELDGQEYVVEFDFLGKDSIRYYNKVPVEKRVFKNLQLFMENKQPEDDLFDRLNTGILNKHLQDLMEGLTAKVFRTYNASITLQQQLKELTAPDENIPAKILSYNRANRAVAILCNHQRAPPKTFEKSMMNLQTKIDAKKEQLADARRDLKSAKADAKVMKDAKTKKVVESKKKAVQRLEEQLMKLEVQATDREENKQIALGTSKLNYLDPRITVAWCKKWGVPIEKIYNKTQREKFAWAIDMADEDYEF
Method: (2) Activity of GM for inhibiting the topoisomerase I was measured by the same method as in Example 17-(1) except that topoisomerase I [manufacturedby TopoGEN, 0.01 unit/y 1] was used instead of topoisomerase II; and 100 mM Tris-HCl (pH 7.9), 10 mM EDTA, 1 mM spermidine and 50% glycerol were used as a buffer with a ten-fold diluted concentration. Incidentally, as a sample, GM was added to make the final concentration 1 mM.

[6] = test system: antigen-specific IgE; assay: Antigen-specific IgE production (48-hour rat PCA); format: in vivo, rat (Wistar); conditions: for IgE Titer: three days, control 64
Method: Yale rats of Wistar strain of five weeks age (one group consisting of five rats) (Nippon SLC) were sensitized by an intraperitoneal injection of 100 μl of 0.01% solution of egg white albumin (Sigma) in an aqueous physiological saline solution and 100 μl of Alum (trade name: Imject Alum; Pierce) and, after 14 days, blood was collected from abdominal artery.
The collected blood was centrifuged (at 2000 rpm for five minutes), plasma was separated and the amount of antigen-specific IgE was measured by a 48-hour rat passive cutaneous anaphylaxis (PCA) reaction.
Thus, serum was diluted with a physiological saline solution in a successively doubling manner ranging from 1/4 to 1/64 and each 0.1 ml thereof was subcutaneously injected to hair-clipped back of male rats of Wistar strain of seven weeks age. After 48 hours from the subcutaneous injection, 1 ml of a mixture of 0.05% egg white albumin and 0.5% Evans Blue (manufactured by Nacalai Tesque) was injected from tail vein. After 30 minutes from the injection from the tail vein, rats were subjected to decapitation and to exanguinated death, blue spots appeared on the back were observed, the spots with a diameter of 5 mm or more were judged to be positive and the highest dilution was adopted as an IgE titer.
In the GM-administered groups, 3 mg/kg or 30 mg/kg of GM was intraperitoneally administered once daily for three days from the antigen-sensitized day while, in the control group, distilled water was intraperitoneally administered by the same manner.

| SMILES | Induction of Heat Shock Protein [1] | TNF in serum (Mean ± SE) ([2]; 100 mg/kg oral) [ng/mL] | inhibition of production of tumor necrosis factor (in words) ([2]; 1000 mg/kg oral) | TNF in serum (Mean ± SE) ([2]; 1000 mg/kg oral) [ng/mL] | inhibition of cell damage caused by LPS [3] | ratio of Fas antigen-expressing cells, time course ([4]; 10 μM, 1-24 hours) | ratio of Fas antigen-expressing cells ([4]; 1-10 μM, 24 hours) | inhibition of topoisomerase I [5] | IgE Titer ([6]; 3 mg/kg/day i.p.) | IgE Titer ([6]; 30 mg/kg/day i.p.) | inhibiting activity to IgE production (in words) ([6]; rat, in vivo) |
| --- | --- | --- | --- | --- | --- | --- | --- | --- | --- | --- | --- |
| N[C@@H](CSC1C=C(O)C(=O)C1)C(=O)O (some centres unmarked) [CM] | - |  |  |  |  |  |  |  |  |  |  |
| N[C@@H](CCC(=O)N[C@@H](CSC1C=C(O)C(=O)C1)C(=O)NCC(=O)O)C(=O)O (some centres unmarked) [GM, 2-hydroxy-4-glutathion-S-yl-2-cyclopenten-1-one] |  | 2.22 ± 0.26 | significantly inhibited | 1.16 ± 0.26 | inhibited the cell damage in RAW 264.7 cells caused by LPS | increased after 12 hours from the incubation and further increase was noted after 24 hours | the ratio of Fas antigen-expressing cells increased on a concentration-dependent manner | topoisomerase I was inhibited by 1 mM GM | 32 | 8 | inhibited by administration of GM in a dose-dependent manner |
